Test: xn = mol fraction of the nth substance listed
Conditions: 101 kPa

CCCCCCCCOS(=O)(=O)[O-].CC[n+]1ccn(C)c1 + O
Conditions | electrical conductivity [S/m] | viscosity [mPa·s]
268.15 K, x2 = 0.7822 | 0.277 | –
268.15 K, x2 = 0.8104 | 0.331 | –
268.15 K, x2 = 0.8384 | 0.406 | –
273.15 K, x2 = 0.7822 | 0.355 | –
273.15 K, x2 = 0.8104 | 0.417 | –
273.15 K, x2 = 0.8384 | 0.529 | –
278.15 K, x2 = 0.7822 | 0.447 | –
278.15 K, x2 = 0.8104 | 0.522 | –
278.15 K, x2 = 0.8384 | 0.653 | –
283.15 K, x2 = 0.7822 | 0.552 | –
283.15 K, x2 = 0.8104 | 0.642 | –
283.15 K, x2 = 0.8237 | 0.677 | –
283.15 K, x2 = 0.8384 | 0.799 | –
288.15 K, x2 = 0.8104 | 0.772 | –
288.15 K, x2 = 0.8237 | 0.819 | –
288.15 K, x2 = 0.8384 | 0.956 | –
290.15 K, x2 = 0.8384 | 1.02 | –
291.15 K, x2 = 0.8237 | 0.91 | –
291.15 K, x2 = 0.8384 | 1.05 | –
292.15 K, x2 = 0.8104 | 0.89 | –
293.15 K, x2 = 0.7822 | 0.801 | –
293.15 K, x2 = 0.8104 | 0.921 | –
293.15 K, x2 = 0.8237 | 0.971 | –
293.15 K, x2 = 0.8384 | 1.13 | –
294.15 K, x2 = 0.8104 | 0.951 | –
296.15 K, x2 = 0.8237 | – | 73.9
297.15 K, x2 = 0.7822 | – | 76.7
297.15 K, x2 = 0.8384 | – | 62.9
298.15 K, x2 = 0.7822 | 0.949 | 72.6
298.15 K, x2 = 0.8104 | 1.07 | 67.2
298.15 K, x2 = 0.8384 | 1.31 | 59.6
299.15 K, x2 = 0.8237 | – | 60.2
300.15 K, x2 = 0.8237 | – | 57.1
303.15 K, x2 = 0.7822 | 1.11 | 55.9
303.15 K, x2 = 0.8104 | 1.25 | 51.7
308.15 K, x2 = 0.7822 | – | 43.7
308.15 K, x2 = 0.8104 | – | 40.4
308.15 K, x2 = 0.8237 | – | 38.33
308.15 K, x2 = 0.8384 | – | 36.02
313.15 K, x2 = 0.7822 | 1.47 | 34.66
313.15 K, x2 = 0.8237 | 1.73 | –
313.15 K, x2 = 0.8384 | 1.98 | 28.64
318.15 K, x2 = 0.8237 | – | 24.55
323.15 K, x2 = 0.7822 | 1.89 | 22.8
323.15 K, x2 = 0.8104 | 2.09 | 21.03
323.15 K, x2 = 0.8384 | 2.55 | 18.8
328.15 K, x2 = 0.8237 | – | 16.51
333.15 K, x2 = 0.8104 | 2.66 | 14.42
333.15 K, x2 = 0.8384 | 3.13 | 12.91
338.15 K, x2 = 0.8237 | – | 11.57
343.15 K, x2 = 0.8104 | 3.17 | 10.28
343.15 K, x2 = 0.8237 | 3.28 | –
343.15 K, x2 = 0.8384 | 3.76 | 9.26
353.15 K, x2 = 0.8237 | 3.77 | –
358.15 K, x2 = 0.8237 | 3.99 | –
363.15 K, x2 = 0.8237 | 4.35 | –
